How the values were obtained:
Recombinant SIK2 = Recombinant SIK2 (Homo sapiens (Human), UniProt Q9H0K1); test: biochemical; settings: recombinant SIK2 2.5 nM, 1 μM ATP; read-out: SIK2 IC50
Description: (§1) Assays were performed in base reaction buffer (20 mM Hepes (pH 7.5), 10 mM MgCl2, 1 mM EGTA, 0.02% Brij35, 0.02 mg/mL BSA, 0.1 mM Na3VO4, 2 mM DTT, 1% DMSO). Compounds were dissolved in 100% DMSO in a 10 mM stock. […] Assays were performed for 20 minutes at room temperature, after which time ^33P-ATP (10 μCi/μL) was added followed by incubation for another 120 minutes at room temperature. Thereafter, radioactivity incorporated into the pEY peptide substrate was detected by filter-binding method. Kinase activity data were expressed as the percent remaining kinase activity in test samples compared to DMSO reactions. IC50 values and curve fits were obtained using Prism (GraphPad Software).

SIK3 = SIK3 (Homo sapiens (Human), UniProt Q9Y2K2); test: In vitro SIK3 kinase assay; format: biochemical
Description: as §1

SIK1 = SIK1 (Homo sapiens (Human), UniProt P57059); test: In vitro SIK1 kinase assay; format: biochemical
Description: as §1

CRTC2 (TORC2) = test: CRTC2 nuclear translocation (PathHunter U2OS); format: cell-based; settings: maximal CRTC2 nuclear translocation, U2OS cells, 90 minutes, maximum dose 10 μM
Excerpt: PathHunter® Nuclear Translocation cell lines are engineered to co-express two fusion proteins: a) Enzyme Donor (ED) tagged target protein; b) an Enzyme Acceptor (EA) tagged TAZ domain, derived from the CBP/P300 transcription factor, that localizes to the nucleus. Activation of the signaling pathway induces translocation of the ED-tagged target protein into the nucleus, which will force complementation of the two enzyme fragments, and result in the formation of a functional enzyme that will hydrolyze substrate and generate a chemiluminescent signal. U2OS CRTC2 (TORC2) translocation assays were performed in 384 well plates at Eurofins DiscoverX (Freemont, CA). Cells were treated with compounds for 90 minutes in experimental duplicates in 5 point dose response format (4-fold serial dilutions with a maximum dose of 10 μM) followed by […] readout on an Envision 2104 Multilabel Reader. In all experiments, forskolin was used as a positive control and maximal CRTC2 nuclear translocation induced by each compound is expressed as a percentage of the signal stimulated by forskolin.
Representative data are shown in FIG. 4A and presented as percent of the positive control (forskolin) signal.

RANKL = RANKL gene expression in Ocy454 cells (RT-qPCR); settings: maximal RANKL fold induction versus DMSO, four hours;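 further: Ocy454 cells moved to 37 °C for osteocytic differentiation before compound exposure, RANKL mRNA by SYBR Green qRT-PCR, 2^−ΔΔCT with β-actin normalization, duplicate wells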

Chain of SIK3 (Q9Y2K2 whole entry): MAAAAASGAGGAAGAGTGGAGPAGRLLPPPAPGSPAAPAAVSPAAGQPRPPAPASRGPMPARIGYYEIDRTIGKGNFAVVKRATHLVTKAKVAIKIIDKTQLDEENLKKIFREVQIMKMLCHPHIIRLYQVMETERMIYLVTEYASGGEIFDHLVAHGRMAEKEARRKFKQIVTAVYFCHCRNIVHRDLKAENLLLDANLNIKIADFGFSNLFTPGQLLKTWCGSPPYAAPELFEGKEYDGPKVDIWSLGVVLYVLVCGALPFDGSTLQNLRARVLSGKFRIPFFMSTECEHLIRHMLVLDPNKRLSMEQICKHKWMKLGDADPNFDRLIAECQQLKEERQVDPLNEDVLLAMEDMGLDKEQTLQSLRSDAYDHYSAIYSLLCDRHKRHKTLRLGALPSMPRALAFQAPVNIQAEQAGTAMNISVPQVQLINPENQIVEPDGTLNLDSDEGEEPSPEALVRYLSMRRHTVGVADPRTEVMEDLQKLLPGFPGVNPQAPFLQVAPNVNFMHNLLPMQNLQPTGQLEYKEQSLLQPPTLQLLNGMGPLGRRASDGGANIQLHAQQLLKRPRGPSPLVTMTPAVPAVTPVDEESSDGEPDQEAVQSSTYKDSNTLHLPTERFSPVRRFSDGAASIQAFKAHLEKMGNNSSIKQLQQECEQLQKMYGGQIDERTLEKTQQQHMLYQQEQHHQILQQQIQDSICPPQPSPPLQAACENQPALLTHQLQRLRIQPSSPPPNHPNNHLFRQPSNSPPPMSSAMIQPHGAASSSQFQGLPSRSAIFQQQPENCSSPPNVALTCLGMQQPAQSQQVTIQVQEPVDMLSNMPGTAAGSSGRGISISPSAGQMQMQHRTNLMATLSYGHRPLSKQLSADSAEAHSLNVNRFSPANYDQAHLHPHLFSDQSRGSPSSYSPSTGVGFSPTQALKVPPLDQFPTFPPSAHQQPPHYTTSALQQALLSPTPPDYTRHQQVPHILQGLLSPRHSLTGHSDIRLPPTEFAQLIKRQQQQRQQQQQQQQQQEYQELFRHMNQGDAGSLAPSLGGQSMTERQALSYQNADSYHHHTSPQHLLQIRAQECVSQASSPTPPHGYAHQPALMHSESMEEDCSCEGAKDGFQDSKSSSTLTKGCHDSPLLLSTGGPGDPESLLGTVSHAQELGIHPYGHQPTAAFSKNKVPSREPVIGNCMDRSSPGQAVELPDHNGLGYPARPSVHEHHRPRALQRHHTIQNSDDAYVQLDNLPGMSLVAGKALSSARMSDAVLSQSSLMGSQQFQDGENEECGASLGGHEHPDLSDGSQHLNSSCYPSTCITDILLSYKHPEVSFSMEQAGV
Chain of SIK1 (P57059 whole entry): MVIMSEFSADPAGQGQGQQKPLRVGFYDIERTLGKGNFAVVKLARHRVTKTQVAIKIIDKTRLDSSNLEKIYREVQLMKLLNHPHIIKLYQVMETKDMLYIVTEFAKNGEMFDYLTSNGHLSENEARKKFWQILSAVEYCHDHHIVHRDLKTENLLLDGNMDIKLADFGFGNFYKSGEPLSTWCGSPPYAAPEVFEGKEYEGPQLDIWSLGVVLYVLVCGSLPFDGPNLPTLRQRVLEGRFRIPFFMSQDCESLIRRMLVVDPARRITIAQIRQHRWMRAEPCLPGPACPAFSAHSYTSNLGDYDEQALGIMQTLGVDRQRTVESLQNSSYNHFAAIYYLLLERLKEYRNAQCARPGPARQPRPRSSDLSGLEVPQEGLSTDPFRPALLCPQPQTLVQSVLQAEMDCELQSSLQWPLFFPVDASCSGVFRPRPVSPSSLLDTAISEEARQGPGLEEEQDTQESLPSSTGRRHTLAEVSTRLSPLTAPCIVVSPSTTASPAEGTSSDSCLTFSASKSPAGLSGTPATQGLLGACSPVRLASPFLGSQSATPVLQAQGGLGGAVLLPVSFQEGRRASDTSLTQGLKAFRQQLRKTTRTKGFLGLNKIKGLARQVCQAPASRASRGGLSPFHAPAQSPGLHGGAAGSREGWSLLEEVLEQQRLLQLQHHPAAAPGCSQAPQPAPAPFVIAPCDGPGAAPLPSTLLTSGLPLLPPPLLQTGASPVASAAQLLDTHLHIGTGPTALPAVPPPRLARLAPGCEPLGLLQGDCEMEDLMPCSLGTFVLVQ
Chain of Recombinant SIK2 (Q9H0K1 whole entry): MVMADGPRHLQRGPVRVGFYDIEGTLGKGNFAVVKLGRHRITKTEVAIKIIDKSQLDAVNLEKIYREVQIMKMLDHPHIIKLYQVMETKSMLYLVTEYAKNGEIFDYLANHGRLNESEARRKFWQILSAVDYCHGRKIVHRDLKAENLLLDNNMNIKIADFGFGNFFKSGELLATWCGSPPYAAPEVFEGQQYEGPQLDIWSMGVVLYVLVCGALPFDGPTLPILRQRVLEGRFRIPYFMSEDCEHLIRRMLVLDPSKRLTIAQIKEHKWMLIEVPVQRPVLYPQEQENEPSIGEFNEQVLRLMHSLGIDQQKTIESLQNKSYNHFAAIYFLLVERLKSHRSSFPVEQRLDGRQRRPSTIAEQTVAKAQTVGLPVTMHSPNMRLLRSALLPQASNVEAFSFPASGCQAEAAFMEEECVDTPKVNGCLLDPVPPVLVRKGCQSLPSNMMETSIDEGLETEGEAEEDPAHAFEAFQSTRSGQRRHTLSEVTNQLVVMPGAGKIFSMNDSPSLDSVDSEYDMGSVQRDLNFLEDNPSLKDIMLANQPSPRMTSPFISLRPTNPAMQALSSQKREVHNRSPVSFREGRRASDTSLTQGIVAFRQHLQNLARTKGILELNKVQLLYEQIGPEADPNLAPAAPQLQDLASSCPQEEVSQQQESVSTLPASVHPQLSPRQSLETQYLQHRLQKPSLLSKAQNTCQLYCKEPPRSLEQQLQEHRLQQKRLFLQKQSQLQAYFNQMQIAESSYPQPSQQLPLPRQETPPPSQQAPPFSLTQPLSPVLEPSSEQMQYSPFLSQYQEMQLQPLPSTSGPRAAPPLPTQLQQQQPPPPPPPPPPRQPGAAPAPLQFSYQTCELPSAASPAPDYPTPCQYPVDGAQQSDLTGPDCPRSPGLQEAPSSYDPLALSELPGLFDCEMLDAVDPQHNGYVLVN

| Compound | IC50 (Recombinant SIK2) [nM] | IC50 (SIK3) [nM] | IC50 (SIK1) [nM] | CRTC2 Efficacy (% of forskolin) (CRTC2 (TORC2)) | RANKL Fold Induction (RANKL) [fold] |
| --- | --- | --- | --- | --- | --- |
| CC1(COc2ccc3c(c2)ncn3-c2ccc3cccc(N4CC5(CC(N)C5)C4)c3n2)COC1 [Example 2, 2-[2-[5-[(3-Methyloxetan-3-yl)methoxy]benzimidazol-1-yl]-8-quinolyl]-2-azaspiro[3.3]heptan-6-amine] | 42.1 | 38.7 | 625 | 162 % of forskolin | 1.43 |
| CC1(COc2ccc3c(c2)ncn3-c2ccc3cccc(N4CCCC4CN)c3n2)COC1 (centres unmarked) [Example 8, (1-(2-(5-((3-methyloxetan-3-yl)methoxy)-1H-benzo[d]imidazol-1-yl)quinolin-8-yl)pyrrolidin-2-yl)methanamine] | 11.6 | 30.8 | 50.1 | 64.4 % of forskolin | 17.47 |
| CN1CCOCC12CCN(c1cccc3ccc(-n4cnc5cc(OCC6(C)COC6)ccc54)nc13)CC2 [Example 10, 1-Methyl-9-[2-[5-[(3-methyloxetan-3-yl)methoxy]benzimidazol-1-yl]-8-quinolyl]-4-oxa-1,9-diazaspiro[5.5]undecane] | 2.11 | 3.71 | 37.8 | 75.8 % of forskolin | 58.64 |
| NC1CCN(c2cccc3ncc(-n4cnc5cc(OCC6CS(=O)(=O)C6)ccc54)nc23)CC1 [Example 14, 3-(((1-(8-(4-Aminopiperidin-1-yl)quinoxalin-2-yl)-1H-benzo[d]imidazol-5-yl)oxy)methyl)thietane 1,1-dioxide] | 16.1 | 6.08 | 109 | 94.2 % of forskolin | 1.26 |
| CN1CC(c2cccc3ccc(-n4cnc5cc(OCC6(C)COC6)ccc54)nc23)C1 [Example 15, 8-(1-Methylazetidin-3-yl)-2-(5-((3-methyloxetan-3-yl)methoxy)-1H-benzo[d]imidazol-1-yl)quinoline] | 1.91 | 1.12 | 4.37 | 63.5 % of forskolin | 88.34 |
| CC1(COc2ccc3c(c2)ncn3-c2ccc3cccc(C4CCNC4)c3n2)COC1 (centres unmarked) [Example 16, 2-(5-((3-Methyloxetan-3-yl)methoxy)-1H-benzo[d]imidazol-1-yl)-8-(pyrrolidin-3-yl)quinoline] | 3.39 | 4.43 | 16.6 | – | 27.76 |
| CN1CCC(c2cccc3ccc(-n4cnc5cc(OCC6(C)COC6)ccc54)nc23)C1 (centres unmarked) [Example 17, 2-(5-((3-Methyloxetan-3-yl)methoxy)-1H-benzo[d]imidazol-1-yl)-8-(1-methylpyrrolidin-3-yl)quinoline] | 1.04 | 15.4 | 53.3 | – | 12.73 |
| Cn1c(CNC(=O)c2ccn3c(-c4ccc(C#N)cc4)cnc3c2)nc2ccccc21 [Example 23, 3-(4-cyanophenyl)-N-((1-methyl-1H-benzo[d]imidazol-2-yl)methyl)imidazo[1,2-a]pyridine-7-carboxamide] | 14.3 | 861 | – | 19.8 % of forskolin | – |
| N#Cc1ccc(-c2cnc3cc(C(=O)NCc4nc5ccncc5[nH]4)ccn23)cc1 [Example 25, N-((3H-imidazo[4,5-c]pyridin-2-yl)methyl)-3-(4-cyanophenyl)imidazo[1,2-a]pyridine-7-carboxamide] | 9.74 | 1190 | 5450 | 1.6 % of forskolin | 1.10 |
| N#Cc1ccc(-c2cnc3cc(C(=O)N4CCn5c(nc6ccccc65)C4)ccn23)cc1 [Example 28, 4-(7-(1,2,3,4-tetrahydrobenzo[4,5]imidazo[1,2-a]pyrazine-2-carbonyl)imidazo[1,2-a]pyridin-3-yl)benzonitrile] | 597 | 8090 | – | 3.4 % of forskolin | 1.25 |
| CN(Cc1nc2ccccc2n1C)C(=O)c1ccn2c(-c3ccc(C#N)cc3)cnc2c1 [Example 29, 3-(4-Cyanophenyl)-N-methyl-N-[(1-methylbenzimidazol-2-yl)methyl]imidazo[1,2-a]pyridine-7-carboxamide] | 608 | 8340 | – | 2.8 % of forskolin | 1.48 |
| CC1(COc2ccn3c(-c4ccc(C#N)cc4)cnc3c2)COC1 [Example 38, 4-[7-[(3-Methyloxetan-3-yl)methoxy]imidazo[1,2-a]pyridin-3-yl]benzonitrile] | 211 | – | – | 10.1 % of forskolin | 0.37 |
| CCc1nnc(-c2c(OC)cc(-c3cnc4cc(OCC5(C)COC5)ccn34)cc2OC)o1 [Example 39, 2-(2,6-dimethoxy-4-(7-((3-methyloxetan-3-yl)methoxy)imidazo[1,2-a]pyridin-3-yl)phenyl)-5-ethyl-1,3,4-oxadiazole] | 136 | 83.6 | 2680 | – | – |
| Cc1ccc(CCOc2ccn3c(-c4ccc(C#N)cc4)cnc3c2)cn1 [Example 41, 4-[7-[2-(6-Methyl-3-pyridyl)ethoxy]imidazo[1,2-a]pyridin-3-yl]benzonitrile] | – | 12.6 | 233 | 44.2 % of forskolin | 2.61 |
| CCc1nnc(-c2c(OC)cc(-c3cnc4cc(OCc5ccc(C)nc5)ccn34)cc2OC)o1 [Example 42, 2-[2,6-Dimethoxy-4-[7-[(6-methyl-3-pyridyl)methoxy]imidazo[1,2-a]pyridin-3-yl]phenyl]-5-ethyl-1,3,4-oxadiazole] | 37 | 47 | 1180 | – | – |
| CCn1cc(-c2ccn3c(-c4ccc(C#N)c(C)c4)cnc3c2)cn1 [Example 47, 4-(7-(1-ethyl-1H-pyrazol-4-yl)imidazo[1,2-a]pyridin-3-yl)-2-methylbenzonitrile] | 0.855 | 4.16 | 8.34 | – | 17.43 |
| CCn1cc(-c2ccc3c(-c4ccc(C#N)cc4)cnn3c2)cn1 [Example 52, 4-[6-(1-Ethylpyrazol-4-yl)pyrazolo[1,5-a]pyridin-3-yl]benzonitrile] | 1.11 | 1.64 | 4.77 | 77 % of forskolin | 19.99 |
| CCc1nnc(-c2c(OC)cc(-c3cnn4cc(-c5cnn(C6CC6)c5)ccc34)cc2OC)o1 [Example 53, 2-(4-(6-(1-cyclopropyl-1H-pyrazol-4-yl)pyrazolo[1,5-a]pyridin-3-yl)-2,6-dimethoxyphenyl)-5-ethyl-1,3,4-oxadiazole] | 1.77 | 2.62 | 17.4 | – | – |
| CCn1cc(-c2ccn3c(-c4ccc(-c5nnc(C)o5)cc4)cnc3c2)cn1 [Example 56, 2-(4-(7-(1-ethyl-1H-pyrazol-4-yl)imidazo[1,2-a]pyridin-3-yl)phenyl)-5-methyl-1,3,4-oxadiazole] | 533 | 617 | 3120 | 4.9 % of forskolin | 2.18 |
| COc1cc(-c2cnc3cc(-c4cnn(C)c4)ccn23)cc(OC)c1-c1nnc(C2CC2)o1 [Example 60, 2-cyclopropyl-5-(2,6-dimethoxy-4-(7-(1-methyl-1H-pyrazol-4-yl)imidazo[1,2-a]pyridin-3-yl)phenyl)-1,3,4-oxadiazole] | 1.49 | 1.64 | 4.45 | – | 307.25 |
| CCc1nc(-c2c(OC)cc(-c3cnc4cc(-c5cnn(C)c5)ccn34)cc2OC)no1 [Example 61, 3-[2,6-Dimethoxy-4-[7-(1-methylpyrazol-4-yl)imidazo[1,2-a]pyridin-3-yl]phenyl]-5-ethyl-1,2,4-oxadiazole] | 3.07 | 8.25 | 37.8 | 76.9 % of forskolin | 19.00 |
| CCn1cc(-c2ccn3c(-c4ccc(-c5noc(C)n5)cc4)cnc3c2)cn1 [Example 62, 3-(4-(7-(1-Ethyl-1H-pyrazol-4-yl)imidazo[1,2-a]pyridin-3-yl)phenyl)-5-methyl-1,2,4-oxadiazole] | 253 | 1090 | 1130 | 8.6 % of forskolin | – |
